Assay results published in PubChem BioAssay AID1918953 (Molecular Pharmacology Branch, DTP, NCI, 2023).
Several values for one entry are separate records, joined by “and”; a condition that tells them apart may be missing. Equal entries are not always repeated.

Test system: MDA-MB-231 complex spheroid viability
Assay: Anticancer human tumor MDA-MB-231/ATCC cell line growth inhibition;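 note: drug exposure lasted 7 days starting on day 3 of spheroid growth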
Conditions: for viability, T/C: stronger effect = lower value
Procedure, shortened: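 Multicellular complex spheroids of tumor cells with human endothelial cells (HUVEC) and mesenchymal stem cells; the LSD1 inhibitor iadademstat was combined with standard-of-care or investigational agents. Top concentration at or near clinical Cmax, half-log dilutions; final DMSO ≤0.25%.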

[1] = curve of first compound, second compound 0.1 µM
[2] = curve of first compound, second compound 0.316 µM
[3] = curve of first compound, second compound 1 µM
[4] = curve of first compound, second compound 3.16 µM
[5] = curve of first compound, second compound 10 µM

`Nc1ncn(C2CC(O)C(CO)S2)c(=O)n1` (stereo unspecified) + NC1CC1c1ccc(-c2cccc(O)c2)cc1 was tested. Which IC50 [1] did it give?
Its IC50 is 0.00745 µM.

What about the IC50 [2] of the same compound?
The IC50 was 0.00579 µM.

And the IC50 [3]?
Its IC50 is 0.00318 µM.

And the IC50 [4]?
The IC50 was 0.00417 µM.

What about the IC50 [5] of the same compound?
The IC50 was 0.00108 µM.

And the viability, T/C (second compound 0.1 µM, first compound 0.000949 µM)?
The viability, T/C was 68.5%.

What about the viability, T/C (second compound 0.1 µM, first compound 0.003 µM) of the same compound?
Its viability, T/C is 61.9%.

What about the viability, T/C (second compound 0.1 µM, first compound 0.00949 µM) of the same compound?
Its viability, T/C is 45.6%.

And the viability, T/C (second compound 0.1 µM, first compound 0.03 µM)?
Its viability, T/C is 32.4%.

And the viability, T/C (second compound 0.1 µM, first compound 0.0949 µM)?
The viability, T/C was 17%.

What about the viability, T/C (second compound 0.1 µM, first compound 0.3 µM) of the same compound?
Its viability, T/C is 11.3%.

And the viability, T/C (second compound 0.316 µM, first compound 0.000949 µM)?
Its viability, T/C is 60.4%.

What about the viability, T/C (second compound 0.316 µM, first compound 0.003 µM) of the same compound?
The viability, T/C was 59.5%.

And the viability, T/C (second compound 0.316 µM, first compound 0.00949 µM)?
The viability, T/C was 43.5%.

What about the viability, T/C (second compound 0.316 µM, first compound 0.03 µM) of the same compound?
Its viability, T/C is 27.6%.

And the viability, T/C (second compound 0.316 µM, first compound 0.0949 µM)?
Its viability, T/C is 17.8%.

And the viability, T/C (second compound 0.316 µM, first compound 0.3 µM)?
Its viability, T/C is 9.51%.

And the viability, T/C (second compound 1 µM, first compound 0.000949 µM)?
Its viability, T/C is 54%.

What about the viability, T/C (second compound 1 µM, first compound 0.003 µM) of the same compound?
Its viability, T/C is 53.4%.

And the viability, T/C (second compound 1 µM, first compound 0.00949 µM)?
Its viability, T/C is 39.1%.

What about the viability, T/C (second compound 1 µM, first compound 0.03 µM) of the same compound?
Its viability, T/C is 28.5%.

And the viability, T/C (second compound 1 µM, first compound 0.0949 µM)?
Its viability, T/C is 18.3%.

And the viability, T/C (second compound 1 µM, first compound 0.3 µM)?
Its viability, T/C is 10.4%.

And the viability, T/C (second compound 3.16 µM, first compound 0.000949 µM)?
Its viability, T/C is 59.4%.

What about the viability, T/C (second compound 3.16 µM, first compound 0.003 µM) of the same compound?
The viability, T/C was 53.7%.

What about the viability, T/C (second compound 3.16 µM, first compound 0.00949 µM) of the same compound?
Its viability, T/C is 41.1%.

And the viability, T/C (second compound 3.16 µM, first compound 0.03 µM)?
Its viability, T/C is 31%.

What about the viability, T/C (second compound 3.16 µM, first compound 0.0949 µM) of the same compound?
The viability, T/C was 16.1%.

And the viability, T/C (second compound 3.16 µM, first compound 0.3 µM)?
Its viability, T/C is 9.57%.

What about the viability, T/C (second compound 10 µM, first compound 0.000949 µM) of the same compound?
The viability, T/C was 51.1%.

What about the viability, T/C (second compound 10 µM, first compound 0.003 µM) of the same compound?
Its viability, T/C is 41.2%.

What about the viability, T/C (second compound 10 µM, first compound 0.00949 µM) of the same compound?
The viability, T/C was 28.2%.

And the viability, T/C (second compound 10 µM, first compound 0.03 µM)?
The viability, T/C was 19.5%.

What about the viability, T/C (second compound 10 µM, first compound 0.0949 µM) of the same compound?
The viability, T/C was 12.1%.

What about the viability, T/C (second compound 10 µM, first compound 0.3 µM) of the same compound?
The viability, T/C was 9.21%.

Which results are given for `CC1(C)CCC(CN2CCN(c3ccc(C(=O)NS(=O)(=O)c4ccc(NCC5CCOCC5)c([N+](=O)[O-])c4)c(Oc4cnc5[nH]ccc5c4)c3)CC2)=C(c2ccc(Cl)cc2)C1`?
viability, T/C (compound 0.0316 µM): 109%; viability, T/C (compound 0.1 µM): 105% and 107%; viability, T/C (compound 0.316 µM): 100% and 114%; viability, T/C (compound 1 µM): 103% and 123%; viability, T/C (compound 3.16 µM): 102% and 83.3%; IC50 (curve of compound): 7.61 µM and 5.06 µM

How did the IC50 [1] turn out when `CC1(C)CCC(CN2CCN(c3ccc(C(=O)NS(=O)(=O)c4ccc(NCC5CCOCC5)c([N+](=O)[O-])c4)c(Oc4cnc5[nH]ccc5c4)c3)CC2)=C(c2ccc(Cl)cc2)C1` + NC1CC1c1ccc(-c2cccc(O)c2)cc1 was run?
Its IC50 is 4.48 µM.

And the IC50 [2]?
The IC50 was 4.29 µM.

What about the IC50 [3] of the same compound?
The IC50 was 4.43 µM.

What about the IC50 [4] of the same compound?
The IC50 was 4.28 µM.

And the IC50 [5]?
The IC50 was < 0.0316 µM.

What about the viability, T/C (second compound 0.1 µM, first compound 0.0316 µM) of the same compound?
Its viability, T/C is 90.9%.

And the viability, T/C (second compound 0.1 µM, first compound 0.1 µM)?
The viability, T/C was 93%.

What about the viability, T/C (second compound 0.1 µM, first compound 0.316 µM) of the same compound?
Its viability, T/C is 94.5%.

What about the viability, T/C (second compound 0.1 µM, first compound 1 µM) of the same compound?
Its viability, T/C is 112%.

And the viability, T/C (second compound 0.1 µM, first compound 3.16 µM)?
The viability, T/C was 71.2%.

What about the viability, T/C (second compound 0.1 µM, first compound 10 µM) of the same compound?
The viability, T/C was 1.41%.

What about the viability, T/C (second compound 0.316 µM, first compound 0.0316 µM) of the same compound?
Its viability, T/C is 74.1%.

What about the viability, T/C (second compound 0.316 µM, first compound 0.1 µM) of the same compound?
Its viability, T/C is 78.6%.

What about the viability, T/C (second compound 0.316 µM, first compound 0.316 µM) of the same compound?
The viability, T/C was 82.1%.

What about the viability, T/C (second compound 0.316 µM, first compound 1 µM) of the same compound?
The viability, T/C was 77.9%.

What about the viability, T/C (second compound 0.316 µM, first compound 3.16 µM) of the same compound?
Its viability, T/C is 67.6%.

And the viability, T/C (second compound 0.316 µM, first compound 10 µM)?
Its viability, T/C is 1.16%.

And the viability, T/C (second compound 1 µM, first compound 0.0316 µM)?
Its viability, T/C is 75.2%.

And the viability, T/C (second compound 1 µM, first compound 0.1 µM)?
Its viability, T/C is 70%.

What about the viability, T/C (second compound 1 µM, first compound 0.316 µM) of the same compound?
The viability, T/C was 76.7%.

What about the viability, T/C (second compound 1 µM, first compound 1 µM) of the same compound?
Its viability, T/C is 80.5%.

And the viability, T/C (second compound 1 µM, first compound 3.16 µM)?
The viability, T/C was 70%.

And the viability, T/C (second compound 1 µM, first compound 10 µM)?
The viability, T/C was 1.72%.

And the viability, T/C (second compound 3.16 µM, first compound 0.0316 µM)?
Its viability, T/C is 68.2%.

And the viability, T/C (second compound 3.16 µM, first compound 0.1 µM)?
Its viability, T/C is 70.2%.

What about the viability, T/C (second compound 3.16 µM, first compound 0.316 µM) of the same compound?
Its viability, T/C is 78.8%.

And the viability, T/C (second compound 3.16 µM, first compound 1 µM)?
The viability, T/C was 79.4%.

And the viability, T/C (second compound 3.16 µM, first compound 3.16 µM)?
The viability, T/C was 67.1%.

What about the viability, T/C (second compound 3.16 µM, first compound 10 µM) of the same compound?
The viability, T/C was 1.48%.

What about the viability, T/C (second compound 10 µM, first compound 0.0316 µM) of the same compound?
The viability, T/C was 48.5%.

What about the viability, T/C (second compound 10 µM, first compound 0.1 µM) of the same compound?
Its viability, T/C is 42.5%.

What about the viability, T/C (second compound 10 µM, first compound 0.316 µM) of the same compound?
Its viability, T/C is 48.5%.

And the viability, T/C (second compound 10 µM, first compound 1 µM)?
Its viability, T/C is 55.3%.

And the viability, T/C (second compound 10 µM, first compound 3.16 µM)?
Its viability, T/C is 45.6%.

What about the viability, T/C (second compound 10 µM, first compound 10 µM) of the same compound?
The viability, T/C was 0.6%.
